# Legend:
# Test in all cases: relative viability (nuclei count vs DMSO), 5 days (fraction); higher = more cells survive
# [1] = compound: C[C@@H](C(=O)N[C@@H](C1CCCCC1)C(=O)N2CCC[C@H]2C(=O)N[C@@H]3[C@@H](CC4=CC=CC=C34)OCC#CC#CCO[C@@H]5CC6=CC=CC=C6[C@@H]5NC(=O)[C@@H]7CCCN7C(=O)[C@H](C8CCCCC8)NC(=O)[C@H](C)NC)NC [AZD5582] + CS(=O)(=O)N1CCN(Cc2cc3nc(-c4cccc5[nH]ncc45)nc(N4CCOCC4)c3s2)CC1 [Pictilisib] (partner 1 µM)
# In short: (§1)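 For relative viability, nuclei counts in treated wells were divided by those in vehicle wells. Lung cancer cell lines had been pin-tool dosed in 1536-well plates the day after seeding and cultured for 5 days, then fixed and stained in one step (final 0.05% Triton X-100, 1% formaldehyde, 1 ug/ml Hoechst) and imaged at 4×. Doses were one drug alone or a fixed anchor-drug dose plus five library-drug doses (not always all listed) in √10 steps, and values are duplicate-plate medians.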
# [2] = compound: C[C@@H](C(=O)N[C@@H](C1CCCCC1)C(=O)N2CCC[C@H]2C(=O)N[C@@H]3[C@@H](CC4=CC=CC=C34)OCC#CC#CCO[C@@H]5CC6=CC=CC=C6[C@@H]5NC(=O)[C@@H]7CCCN7C(=O)[C@H](C8CCCCC8)NC(=O)[C@H](C)NC)NC [AZD5582] + O=C(c1cc(Cc2n[nH]c(=O)c3ccccc23)ccc1F)N1CCN(C(=O)C2CC2)CC1 [Olaparib] (partner 8 µM)
# In short: as §1
# [3] = compound: Cn1nnc2c(C(N)=O)ncn2c1=O [Temozolomide] + Cc1nc(Nc2ncc(C(=O)Nc3c(C)cccc3Cl)s2)cc(N2CCN(CCO)CC2)n1 [Dasatinib] (partner 0.075 µM)
# In short: as §1
# [4] = compound: C[C@@H](C(=O)N[C@@H](C1CCCCC1)C(=O)N2CCC[C@H]2C(=O)N[C@@H]3[C@@H](CC4=CC=CC=C34)OCC#CC#CCO[C@@H]5CC6=CC=CC=C6[C@@H]5NC(=O)[C@@H]7CCCN7C(=O)[C@H](C8CCCCC8)NC(=O)[C@H](C)NC)NC [AZD5582] + CC(C)C[C@H](NC(=O)[C@H](Cc1ccccc1)NC(=O)c1cnccn1)B(O)O [Bortezomib] (partner 0.002 µM)
# In short: as §1
Cell Line,relative viability ([1]; first compound 0.001581 µM),relative viability ([1]; first compound 0.005 µM),relative viability ([1]; first compound 0.01581 µM),relative viability ([1]; first compound 0.05 µM),relative viability ([2]; first compound 0.001581 µM),relative viability ([2]; first compound 0.005 µM),relative viability ([2]; first compound 0.01581 µM),relative viability ([2]; first compound 0.05 µM),relative viability ([3]; first compound 0.2 µM),relative viability ([3]; first compound 0.6325 µM),relative viability ([3]; first compound 2 µM),relative viability ([3]; first compound 6.325 µM),relative viability ([3]; first compound 20 µM),relative viability ([4]; first compound 0.001581 µM),relative viability ([4]; first compound 0.005 µM),relative viability ([4]; first compound 0.01581 µM),relative viability ([4]; first compound 0.05 µM)
NCI-H358,0.426,0.308,0.394,0.308,0.56,0.702,0.616,0.791,0.13,0.151,0.17,0.142,0.135,,,,
HCC-827,0.995,0.954,0.979,1.06,0.662,0.807,0.626,0.68,0.256,0.343,0.299,0.326,0.149,0.974,1.05,0.901,1.07
NCI-H1355,0.372,0.379,0.289,0.361,0.68,0.728,0.658,0.774,0.713,0.732,0.828,0.699,0.818,1.02,1.14,1.11,1.11
NCI-H1793,0.288,0.311,0.299,0.397,0.674,1.08,0.75,1.23,,0.407,0.378,0.28,0.352,,,,
CAL-12T,0.305,0.314,0.265,0.351,0.558,0.534,0.636,0.373,0.444,0.455,0.427,0.381,0.346,0.777,0.746,0.448,0.668
NCI-H1993,0.916,0.807,0.796,0.859,0.982,1.16,1.06,1.12,0.528,0.603,0.524,0.661,0.6,1.06,1.38,1.15,1.1
EKVX,0.399,0.568,0.362,0.513,0.777,0.894,0.725,0.854,,0.575,0.55,0.782,0.352,1.02,1.02,0.934,0.575
NCI-H1755,0.349,0.424,0.306,0.398,0.843,0.966,0.938,0.939,0.439,0.418,0.427,0.395,0.473,0.925,1.02,0.936,1.02
NCI-H2228,0.286,0.352,0.378,0.193,0.629,0.61,0.618,0.333,0.577,0.637,0.516,0.463,0.44,0.857,1.34,1.36,0.439
NCI-H460,0.277,0.329,0.366,0.337,0.36,0.411,0.345,0.413,0.525,0.547,0.556,0.417,0.486,1.02,1.05,1.06,1.34
HCC-44,0.485,0.6,0.461,0.233,0.942,0.958,0.949,0.903,,,,,,0.711,0.722,0.918,0.553
BEN,0.54,0.561,0.654,0.534,1.09,0.985,1.02,1.17,0.285,0.356,0.31,0.257,0.263,0.786,0.87,0.911,0.579
H3255,0.472,0.454,0.392,0.39,0.489,0.598,0.553,0.481,,0.406,0.283,0.263,0.202,0.823,0.879,0.385,0.552
NCI-H1650,0.535,0.738,0.485,0.604,0.758,0.668,0.813,0.834,0.356,0.329,0.343,0.318,0.28,0.166,0.192,0.188,0.169
A-427,0.567,0.671,0.734,0.587,0.678,0.716,0.729,0.59,0.736,0.669,0.762,0.525,0.356,0.92,0.954,0.938,0.891
NCI-H1651,0.616,0.656,0.539,0.723,0.175,0.183,0.18,0.163,0.418,0.464,0.377,0.356,0.529,0.831,0.907,0.87,0.987
EPLC-272H,0.115,0.0891,0.216,0.0826,,,0.955,0.0712,0.368,0.411,0.413,0.337,0.267,0.833,0.396,0.87,0.277
NCI-H2009,0.741,0.998,0.467,0.705,0.636,0.703,0.706,0.751,0.316,0.299,0.404,0.306,0.326,0.838,1.13,0.61,0.9
HCC-15,0.566,0.596,0.621,0.509,0.615,0.624,0.622,0.598,0.74,0.699,0.625,0.627,0.642,0.921,1.01,0.864,0.975
NCI-H3122,0.626,0.569,0.548,0.189,0.634,0.557,0.641,0.537,0.931,0.803,0.886,0.812,0.828,1.03,0.954,1.07,0.729
NCI-H838,0.39,0.467,0.362,0.59,0.744,0.811,0.711,0.743,0.28,0.253,0.426,0.311,0.281,0.809,1.21,0.382,0.486

Cell Line,relative viability ([1]; first compound 0.001581 µM),relative viability ([1]; first compound 0.005 µM),relative viability ([1]; first compound 0.01581 µM),relative viability ([1]; first compound 0.05 µM),relative viability ([2]; first compound 0.001581 µM),relative viability ([2]; first compound 0.005 µM),relative viability ([2]; first compound 0.01581 µM),relative viability ([2]; first compound 0.05 µM),relative viability ([3]; first compound 0.2 µM),relative viability ([3]; first compound 0.6325 µM),relative viability ([3]; first compound 2 µM),relative viability ([3]; first compound 6.325 µM),relative viability ([3]; first compound 20 µM),relative viability ([4]; first compound 0.001581 µM),relative viability ([4]; first compound 0.005 µM),relative viability ([4]; first compound 0.01581 µM),relative viability ([4]; first compound 0.05 µM)
NCI-H1975,0.3,0.348,0.315,0.409,0.862,1.06,0.764,0.951,0.466,0.365,0.413,0.361,0.462,0.327,0.458,0.373,0.414
NCI-H441,0.419,0.536,0.405,0.47,0.504,0.541,0.603,0.395,0.656,0.621,0.682,0.608,0.724,0.379,0.495,0.47,0.418
NCI-H23,0.419,0.387,0.408,0.327,0.272,0.203,0.3,0.236,0.921,0.898,0.768,0.744,0.861,0.84,1.14,0.913,0.676
HARA,0.553,0.494,0.381,0.338,0.76,0.761,0.812,0.841,0.238,0.301,0.309,0.29,0.23,1.09,1.11,1.06,1.07
ABC-1,0.586,0.93,0.478,0.679,0.845,0.724,0.891,0.976,0.621,0.558,0.607,0.49,0.586,0.282,0.275,0.291,0.261
NCI-H1563,0.644,0.642,0.62,0.729,,,,,0.454,0.481,0.453,0.366,0.447,0.765,0.887,0.788,1.25
NCI-H522,,,,,0.554,0.628,0.641,0.674,0.877,0.729,0.932,0.703,0.935,,,,
SK-MES-1,0.391,0.475,0.4,0.433,0.653,0.515,0.792,0.605,0.289,0.34,0.412,0.374,0.228,,,,
LK-2,0.474,0.575,0.581,0.603,0.63,0.702,0.772,0.675,0.266,0.323,0.384,0.246,0.27,,,,
EBC-1,0.256,0.328,0.346,0.344,0.646,0.707,0.639,0.571,,,,,,0.434,0.39,0.528,0.389
NCI-H1648,,,,,0.65,0.735,,0.672,,,,,,,,,
NCI-H1299,0.702,0.879,0.822,0.805,0.943,0.965,0.963,0.931,,,,,,1.01,1.08,1.04,0.99
NCI-H1623,,,,,,,,,,0.555,0.455,0.474,0.355,,,,
SW 900,,,,,0.667,0.656,0.79,0.495,0.644,0.561,0.381,0.541,0.553,,,,
A549,0.474,0.477,0.585,0.505,0.283,0.301,0.292,0.36,,,,,,,,,
NCI-H2342,,,,,0.325,0.361,0.463,0.438,0.311,0.301,0.304,0.312,0.297,,,,
NCI-H1944,0.344,0.389,0.297,0.389,0.379,0.403,0.365,0.446,0.218,0.196,0.223,0.213,0.192,,,,
Calu-6,0.779,,0.939,0.698,0.489,,0.629,0.258,,,,,,0.917,0.813,0.988,0.551
IA-LM,,0.355,0.347,0.314,0.708,0.586,0.649,0.582,,,,,,0.704,0.679,0.829,0.74
NCI-H1395,0.601,0.698,,0.632,0.445,0.433,,0.464,0.429,0.393,0.491,0.402,0.392,,,,
NCI-H2170,0.3,0.352,0.28,0.319,0.561,0.543,0.628,0.688,,0.677,0.655,0.503,0.259,,,,
